Experiments:
SCC4 cells = assay: Cytotoxicity test (MTT test) on SCC4 cells; type: cell-based, human; conditions: SCC4 cells treated 48 hours, MTT survival rate
Experimental: (§1) The human oral cancer cells used in the Examples SCC4 and SAS are cultivated in a Dulbecco's Modified Eagle's medium (DMEM) cell culture having 10% fetal bovine serum (FBS). The cells are cultivated in an environment having 5% carbon dioxide in 37 degree Celsius. When enough cells are cultivated, the subsequent analysis and tests are performed.
(§2) The MTT reagent (namely, 3-(4,5-dimethylthiazol)-2,5-diphenyltetrazoliumbromide) is a yellow dye. After the MTT reagents are reacted with succinatedehydrogenase-ubiquinone (SDH) in the mitochondrion and cytochrome C, water insoluble blue-purple crystals are formed. After the crystals are dissolved in DMSO solution, the cell survival condition may be determined by the absorbance of the solution at 570 nm, so that the survival ratio of the cells can be calculated.
(§3) DMEM cell culture without serum are provided for preparing MTT solution having a concentration of 5 milligrams per milliliter. […]
(§4) The SCC4 or SAS cells are planted in a 48-well plate (each having 1×10^4 cells). […] And then, the absorbance of the supernatant at 570 nm can be obtained by an enzyme-linked immunosorbent assay (ELISA) reader (model: VersaMax™ Microplate Reader, Molecular devices, Sunnyvale, USA).

SAS cells = assay: Cytotoxicity test (MTT test) on SAS cells; type: cell-based, human; conditions: SAS cells treated 48 hours, MTT survival rate
Experimental: as §1, §2, §3, §4

Substance: photosan
- IC50 for SCC4 cells (SCC4 cells): 2.4 microgram per milliliter
- IC50 for SAS cells (SAS cells): 1.75 microgram per milliliter

Substance: pyropheophorbide-phosphatidic acid [pyro-PA]
- IC50 for SCC4 cells (SCC4 cells): 0.8 microgram per milliliter
- IC50 for SAS cells (SAS cells): 0.1 microgram per milliliter

Reference: US10639372B2, “Nucleic acid, medical nanoparticle, and pharmaceutical composition thereof” (Chung Yuan Christian University, priority 2016, dated 2020)
